Measurements published in patent publication US5340587A, “Liposome/bronchodilator method & System” (priority 1989, dated 1994).
Counter-ions that a name gives are not always drawn.

What was measured:
[1] = Table 1; cited from earlier work
[2] = in vivo
Protocol: This liposome-protective effect is illustrated in FIGS. 1A and 1B, which graph percent increases in heart rate, above a pre-drug level, in animals receiving a β2 -agonist in free (open squares), or liposomal form. The two liposomal formulations are characterized by relatively short drug-release half life (open circles, FIG. 1A), or a relatively long drug-release half life (closed circles, FIG. 1B). Heart rate was measured at 15, 45, 75, and 105 minutes after drug administration, and immediately before the animal received a bronchoconstricting dose of histamine by inhalation. […] With liposome-encapsulated drug, however, the increase in heart rate was substantially lower and more constant over the test period.

[3] = blood plasma MPS levels after inhalation (FIG. 2); assay type: in vivo; conditions: inhaled or intranasal
[4] = tested on: acetylcholine-induced bronchoconstriction; assay: protection against acetylcholine-induced bronchoconstriction (FIG. 4); assay type: in vivo, mongrel dogs; conditions: inhalation, high dose MPS, about four hours (FIG. 4)
[5] = tested on: histamine-induced bronchoconstriction; assay: determination of therapeutic dose of free drug against histamine-induced bronchoconstriction; assay type: in vivo, guinea pigs; conditions: free form, inhalation
Protocol: The therapeutic doses of terbutaline sulfate, and salbutamol sulfate which were used in the present study were determined as follows. […] These drug doses, adjusted for the body weight of the test animal, were administered by inhalation in free form, and their effects on the histamine-induced bronchoconstriction were determined as above. MPS was also tested in the initial drug-dose study. […] The therapeutic doses per animal determined from the study were: 39 μg MPS (2× recommended dose); 15 μg terbutaline (2× recommended dose); and 1.5 μg salbutamol (1× recommended dose). The therapeutic dose of MPS is approximately 60 times less than the dose used in the experiments reported above, and in Example VI.

[6] = tested on: bronchoconstriction; conditions: free vs liposomal-entrapped MPS; cited from earlier work
[7] = in vivo; cited from earlier work
[8] = tested on: histamine-induced bronchoconstriction; assay: histamine-induced bronchoconstriction: airway resistance and lung compliance (FIGS. 5, 6); assay type: in vivo, guinea pigs; conditions: terbutaline, relative to baseline
Protocol: The study described in Example VII illustrates the increased protection, at extended time periods, achievable with liposomal drug administration. Briefly summarizing the Example VII study, terbutaline sulfate or salbutamol sulfate, in either free or liposomal form, was administered by inhalation. At several times after drug administration, the test animal was challenged with aerosolized histamine, to induce bronchoconstriction. At the beginning of each test, prior to administration of the β2 -agonist, and immediately after each histamine dose, airway resistance and lung compliance in the animal were measured. Airway resistance, which is measured at points of equal lung volume during the breathing cycle, provides a measure of the resistance to gas flow through the large air passages of the lung. Lung compliance, which is measured at zero flow points in the breathing cycle, reflects the pressure changes required to effect the lung volume change over the breathing cycle. The resistance and compliance values determined at the beginning of the test serve as baseline values for determining the percentage changes in resistance and compliance, in response to histamine-induced bronchoconstriction.
Each time point was calculated as the difference in airway resistance shortly after histamine administration and at the beginning of the test (baseline value) divided by the baseline value. […]

Row | Structure (SMILES) | Tc (transition temperature) [1] [C.°] | protection against bronchoconstriction at the recommended dose [5] | therapeutic dose per animal [5] [µg] | also measured
1 | CCCCCCCCCCCCCC(=O)OC[C@H](COP(=O)([O-])OCC[N+](C)(C)C)OC(=O)CCCCCCCCCCCCC [DMPC, dimyristoyl phosphatidyl choline] | 23 | – | – | –
2 | CCCCCCCC/C=C\CCCCCCCC(=O)OCC(COP(=O)([O-])OCC[N+](C)(C)C)OC(=O)CCCCCCC/C=C\CCCCCCCC (stereo not drawn) [DOPC, dioleoyl phosphatidyl choline] | -22 | – | – | –
3 | CCCCCCCCCCCCCCCC(=O)OC[C@H](COP(=O)([O-])OCC[N+](C)(C)C)OC(=O)CCCCCCCCCCCCCCC [DPPC, dipalmitoyl phosphatidyl choline] | 41 | – | – | –
4 | CCCCCCCCCCCCCCCCCC(=O)OCC(COP(=O)([O-])OCC[N+](C)(C)C)OC(=O)CCCCCCCCCCCCCCCCC (stereo not drawn) [DSPC, distearoyl phosphatidyl choline] | 55 | – | – | –
5 | CC(C)NCC(O)c1cc(O)cc(O)c1 (stereo not drawn) [MPS, metaproteranol sulfate] | – | necessary to double the recommended dose in order to achieve effective protection | 39 | increase in heart rate [2]: relatively high initial heart rate increase, with a slow decline over the test period; Cmax ([3]; free drug within 15 minutes, read-out: blood plasma MPS level, high): ~80 ng/mL; concentration at 2 h ([3]; over a two-hour period, read-out: blood plasma MPS level at end of test period): ~20 ng/mL; percent protection from ACH-induced bronchoconstriction [4]: substantially the same degree of protection against ACH-induced bronchoconstriction; percent protection against bronchoconstriction [6]: about the same for both free drug and liposomal-entrapped drug; plasma level course [7]: rapid drop in plasma levels
6 | CC(C)(C)NCC(O)c1ccc(O)c(CO)c1 (stereo not drawn) [salbutamol sulfate] | – | good protection against bronchoconstriction | 1.5 | –
7 | CC(C)(C)NCC(O)c1cc(O)cc(O)c1 (stereo not drawn) [terbutaline sulfate] | – | necessary to double the recommended dose in order to achieve effective protection | 15 | increase in airway resistance, end of test period ([8]; 115 minutes (FIG. 5A)): over 160%; increase in airway resistance, initial ([8]; first histamine challenge (FIG. 5A)): 60%
